Data on eight compounds can be found in patent US8759324B2 (priority 2006, dated 2014).

The conditions of data set [1]: in vivo, iv; cited from earlier work.
Data set [2] can be described thus: Electrochemistry: metal-centered redox potential (voltammetry). Particulars: for E1/2 (H2O)M^IIIP/(H2O)M^IIP: 0.1M NaCl and 0.01 M HCl, errors ±3 mV. Type of data set: physicochemical. As for the experimental part:
The electrochemistry was done as previously described on CH Instruments 600 Voltammetric Analyzer. The metal-centered redox potentials of aquametalloporhyrins were measured in 0.1 M NaCl and 0.01 M HCl. […] Thus, their voltammograms were obtained in 0.1 M NaCl, 0.1 M 1-methylimidazole, 0.05 M phosphate buffer, pH 7.8. Scan rates were 0.1 V/s. The potentials were standardized against MnTE-2-PyP^5+ and are given in Table 1, in mV versus normal hydrogen electrode, NHE [42].

Data set [3] is described as follows: Precipitation of anionic porphyrins at acidic pH. The format is physicochemical. Particulars: pH 5.5, ~50% of carboxylate groups protonated.
For data set [4] the following is noted: cited from earlier work.
The conditions of data set [5]: when carboxylates are protonated; cited from earlier work.
The nature of data set [6]: Stability of metalloporphyrins to oxidative degradation (bleaching), spectrophotometric. Particulars: for remaining fraction of metalloporphyrin: after 6 hours, in the presence of cyclophosphamide, pH 7.4, 10 μM porphyrin; for remaining fraction of metalloporphyrin / stability to oxidative degradation / bleaching (in words): aerobic; for stability to oxidative degradation / bleaching (in words): pH 7.4, ascorbic acid.

For data set [7] the following is noted: cited from earlier work. This is another data set of the same source.
The conditions of data set [8]: pH 7.4; for remaining fraction of metalloporphyrin: buffer, 6 h.
Where [9] appears, read: 0.1 M NaCl, 0.1 M 1-methylimidazole, 0.05 M phosphate buffer, pH 7.8, scan rate 0.1 V/s.
Setting [10] is: footnote b: ref 42, pH 7.8, 0.05 M phosphate buffer, 0.1M NaCl, 0.5 mM porphyrin.
The mark [11] stands for this setting: footnote a: estimated from existing potentials of difluoro- and dichloro analogues [42] and those obtained herein.

Like-named read-outs stand apart in the source and are kept apart here.

As for `O=P1(N(CCCl)CCCl)NCCCO1` (stereo not drawn) [CP, cyclophosphamide], in data set [1], the “CP hydroxylated to 4-OHCP in plasma” value is recorded as “around 2.4%” and the “peak CP levels in plasma” value was 27.58 μg/mL μM.

With `C=CC1=C(C)c2cc3[n-]c(cc4[n-]c(cc5nc(cc1n2)C(C)=C5C=C)c(C)c4CCC(=O)O)c(CCC(=O)O)c3C.[Cl-].[Fe+3]` [FePP-IX^−, Fe(III) protoporphyrin IX], the “E1/2 (1-MeIm)2M^IIIP/(1-MeIm)2M^IIP” value in data set [2] (setting [9]) was determined as 112 mV vs NHE. Also, the “precipitation at pH 5.5” value in data set [3] was “precipitate out of the solutions”. Besides, the “pKa of carboxylate groups” value in data set [4] was roughly 5. Further, the “precipitation under acidic conditions” value in data set [5] is recorded as “precipitate under acidic conditions”. Besides, in data set [6] (2 mM ascorbic acid), the “remaining fraction of metalloporphyrin” value amounted to 71%. Moreover, the “stability to oxidative degradation / bleaching (in words)” value in data set [6] is given as “very resistant to bleaching”.

Turning to `C[n+]1ccccc1-c1c2nc(c(-c3cccc[n+]3C)c3ccc([n-]3)c(-c3cccc[n+]3C)c3nc(c(-c4cccc[n+]4C)c4ccc1[n-]4)C=C3)C=C2.[Fe+3]` [FeTM-2-PyP^5+, Fe(III) tetrakis(N-methylpyridinium-2-yl)porphyrin], in [7] (setting [10]), the “E1/2 (1-MeIm)2M^IIIP/(1-MeIm)2M^IIP” value is reported as “+432^b mV vs NHE”, the “E1/2 (H2O)M^IIIP/(H2O)M^IIP” value was “+355^b mV vs NHE” and the “E1/2 (OH)M^IIIP/(H2O)M^IIP” value is “+212^b mV vs NHE”. Moreover, the “change of absorbance at 417.5 nm (porphyrin degradation)” value in data set [6] (9 μM porphyrin, 2 mM ascorbic acid, +/−50 μM H2O2, +/−50 mM mannitol, PBS pH 7.4, 25° C., data not shown) is recorded as “decreased slowly”. Besides, the “remaining fraction of metalloporphyrin” value in data set [6] (2 mM ascorbic acid) turned out to be 41%.

As for `C[n+]1ccccc1-c1c2nc(c(-c3cccc[n+]3C)c3ccc([n-]3)c(-c3cccc[n+]3C)c3nc(c(-c4cccc[n+]4C)c4ccc1[n-]4)C=C3)C=C2.[Mn+3]` [MnTM-2-PyP^5+, Mn(III) tetrakis(N-methylpyridinium-2-yl)porphyrin], in [7] (setting [10]), the “E1/2 (OH)M^IIIP/(H2O)M^IIP” value was “+128^b mV vs NHE”. Also, the “remaining fraction of metalloporphyrin” value in data set [6] (2 mM ascorbic acid) was 91%.

Regarding `C[n+]1cccc(-c2c3nc(c(-c4ccc[n+](C)c4)c4ccc([n-]4)c(-c4ccc[n+](C)c4)c4nc(c(-c5ccc[n+](C)c5)c5ccc2[n-]5)C=C4)C=C3)c1.[Mn+3]` [MnTM-3-PyP^5+, Mn(III) tetrakis(N-methylpyridinium-3-yl)porphyrin], in [7] (footnote c: ref 62, pH 11 where only 33% of (OH)MnTM-3-PyP^4+ exists), the “E1/2 (OH)M^IIIP/(H2O)M^IIP” value was “+42^c mV vs NHE”. The “remaining fraction of metalloporphyrin” value in [6] (2 mM ascorbic acid) turned out to be 94%.

“Fe(III) meso tetrakis(2,6-dichloro-3-sulfonatophenyl)porphyrin [FeT(2,6-Cl2-3-SO3P)P^3−]”: the “E1/2 (H2O)M^IIIP/(H2O)M^IIP” value in data set [2] (scan rate 0.1 V/s) is listed as “+144^ mV vs NHE”. Further, in data set [8], the “remaining fraction of metalloporphyrin” value worked out at 23% and the “stability to oxidative degradation / bleaching (in words)” value is “least stable”. Besides, in data set [7] (setting [10]), the “E1/2 (1-MeIm)2M^IIIP/(1-MeIm)2M^IIP” value is reported as “+134^b mV vs NHE” and the “E1/2 (OH)M^IIIP/(H2O)M^IIP” value is reported as “+94^b mV vs NHE”.

“Fe(III) meso tetrakis(2,6-difluoro-3-sulfonatophenyl)porphyrin [FeT(2,6-F2-3-SO3P)P^3−]”: in data set [2] (scan rate 0.1 V/s), the “E1/2 (H2O)M^IIIP/(H2O)M^IIP” value is given as “+124^ mV vs NHE”. Further, in data set [2] (setting [11]), the “E1/2 (1-MeIm)2M^IIIP/(1-MeIm)2M^IIP” value is “+114^a mV vs NHE” and the “E1/2 (OH)M^IIIP/(H2O)M^IIP” value is reported as “+74^a mV vs NHE”. Where the note is “pH 5.5”, the 4-OHCP produced came to 46.11 µM and the “cyclophosphamide hydroxylated relative to 10 μM porphyrin” value is recorded as roughly 5 fold. This compound also displayed a 4-OHCP formed (pH 7.4) of 15.62 µM. Further, in data set [8], the “remaining fraction of metalloporphyrin” value is recorded as 19% and the “stability to oxidative degradation / bleaching (in words)” value is “least stable”.

Consider “Fe(III) meso tetrakis(4-carboxylatophenyl)porphyrin [FeTBAP^3−]”, for which the “E1/2 (1-MeIm)2M^IIIP/(1-MeIm)2M^IIP” value in data set [2] (setting [9]) is “+22 ^ mV vs NHE”. Also, the “precipitation at pH 5.5” value in [3] is given as “precipitate out of the solutions”. For the same compound, in [4], the “pKa of carboxylate groups” value is listed as roughly 5. For the same compound, in data set [5], the “precipitation under acidic conditions” value is given as “precipitate under acidic conditions”. In data set [6] (2 mM ascorbic acid), the “remaining fraction of metalloporphyrin” value was determined as 24%. For the same compound, in [6], the “stability to oxidative degradation / bleaching (in words)” value is listed as “more prone to destruction”.
